Results reported in the CheMixHub viscosity set.
± gives the uncertainty stated by the source.

Assay: xn = mol fraction of the nth substance listed

ClC(Cl)Cl + CC(C)=O
Settings | viscosity [mPa·s]
293.15 K, 101 kPa, x1 = 0.157 | 0.3875 ± 0.01
293.15 K, 101 kPa, x1 = 0.362 | 0.466 ± 0.012
293.15 K, 101 kPa, x1 = 0.483 | 0.511 ± 0.014
293.15 K, 101 kPa, x1 = 0.609 | 0.5471 ± 0.015
293.15 K, 101 kPa, x1 = 0.824 | 0.5836 ± 0.015
293.15 K, 101 kPa, x2 = 0.112 | 0.565 ± 0.006
293.15 K, 101 kPa, x2 = 0.2 | 0.561 ± 0.006
293.15 K, 101 kPa, x2 = 0.3098 | 0.543 ± 0.006
293.15 K, 101 kPa, x2 = 0.415 | 0.523 ± 0.005
293.15 K, 101 kPa, x2 = 0.502 | 0.495 ± 0.005
293.15 K, 101 kPa, x2 = 0.6075 | 0.456 ± 0.005
293.15 K, 101 kPa, x2 = 0.715 | 0.421 ± 0.005
293.15 K, 101 kPa, x2 = 0.81 | 0.384 ± 0.004
293.15 K, 101 kPa, x2 = 0.9075 | 0.349 ± 0.004
293.15 K, 101.33 kPa, x1 = 0.1193 | 0.357 ± 0.009
293.15 K, 101.33 kPa, x1 = 0.2623 | 0.408 ± 0.011
293.15 K, 101.33 kPa, x1 = 0.3723 | 0.453 ± 0.012
293.15 K, 101.33 kPa, x1 = 0.5128 | 0.508 ± 0.013
293.15 K, 101.33 kPa, x1 = 0.6064 | 0.538 ± 0.014
293.15 K, 101.33 kPa, x1 = 0.7001 | 0.56 ± 0.015
293.15 K, 101.33 kPa, x1 = 0.8577 | 0.583 ± 0.015
293.16 K, 101 kPa, x1 = 0.1193 | 0.357 ± 0.01
293.16 K, 101 kPa, x1 = 0.2623 | 0.408 ± 0.011
293.16 K, 101 kPa, x1 = 0.3723 | 0.453 ± 0.012
293.16 K, 101 kPa, x1 = 0.5128 | 0.508 ± 0.014
293.16 K, 101 kPa, x1 = 0.6064 | 0.538 ± 0.014
293.16 K, 101 kPa, x1 = 0.7001 | 0.56 ± 0.015
293.16 K, 101 kPa, x1 = 0.8577 | 0.583 ± 0.015
293.35 K, 101 kPa, x1 = 0.75 | 0.6037 ± 0.016
293.45 K, 101 kPa, x1 = 0.5 | 0.5307 ± 0.014
298.15 K, 101 kPa, x1 = 0.2 | 0.353 ± 0.0052
298.15 K, 101 kPa, x1 = 0.4 | 0.424 ± 0.0053
298.15 K, 101 kPa, x1 = 0.6 | 0.486 ± 0.0054
298.15 K, 101 kPa, x1 = 0.8 | 0.512 ± 0.0054
298.15 K, 101 kPa, x2 = 0.0555 | 0.5334 ± 0.0055
298.15 K, 101 kPa, x2 = 0.112 | 0.538 ± 0.006
298.15 K, 101 kPa, x2 = 0.1361 | 0.5423 ± 0.0055
298.15 K, 101 kPa, x2 = 0.2 | 0.534 ± 0.006
298.15 K, 101 kPa, x2 = 0.2192 | 0.5338 ± 0.0055
298.15 K, 101 kPa, x2 = 0.2437 | 0.536 ± 0.0055
298.15 K, 101 kPa, x2 = 0.3023 | 0.5258 ± 0.0054
298.15 K, 101 kPa, x2 = 0.3098 | 0.516 ± 0.005
298.15 K, 101 kPa, x2 = 0.3737 | 0.508 ± 0.0053
298.15 K, 101 kPa, x2 = 0.415 | 0.495 ± 0.005
298.15 K, 101 kPa, x2 = 0.4585 | 0.4864 ± 0.005
298.15 K, 101 kPa, x2 = 0.496 | 0.4726 ± 0.005
298.15 K, 101 kPa, x2 = 0.502 | 0.47 ± 0.005
298.15 K, 101 kPa, x2 = 0.552 | 0.4529 ± 0.0048
298.15 K, 101 kPa, x2 = 0.5688 | 0.4495 ± 0.0047
298.15 K, 101 kPa, x2 = 0.6075 | 0.434 ± 0.005
298.15 K, 101 kPa, x2 = 0.6721 | 0.411 ± 0.0044
298.15 K, 101 kPa, x2 = 0.6793 | 0.4052 ± 0.0044
298.15 K, 101 kPa, x2 = 0.6886 | 0.4042 ± 0.0043
298.15 K, 101 kPa, x2 = 0.715 | 0.402 ± 0.004
298.15 K, 101 kPa, x2 = 0.7302 | 0.3926 ± 0.0042
298.15 K, 101 kPa, x2 = 0.7676 | 0.3817 ± 0.0041
298.15 K, 101 kPa, x2 = 0.8067 | 0.3628 ± 0.004
298.15 K, 101 kPa, x2 = 0.81 | 0.367 ± 0.004
298.15 K, 101 kPa, x2 = 0.8196 | 0.3551 ± 0.004
298.15 K, 101 kPa, x2 = 0.8757 | 0.3425 ± 0.0038
298.15 K, 101 kPa, x2 = 0.9075 | 0.334 ± 0.004
298.15 K, 101 kPa, x2 = 0.9182 | 0.3261 ± 0.0037
298.15 K, 101 kPa, x2 = 0.9233 | 0.3206 ± 0.0037
298.15 K, 101 kPa, x2 = 0.963 | 0.3092 ± 0.0036
298.15 K, 101.33 kPa, x1 = 0.1483 | 0.356 ± 0.009
298.15 K, 101.33 kPa, x1 = 0.2721 | 0.4 ± 0.01
298.15 K, 101.33 kPa, x1 = 0.3885 | 0.445 ± 0.012
298.15 K, 101.33 kPa, x1 = 0.4985 | 0.485 ± 0.013
298.15 K, 101.33 kPa, x1 = 0.6363 | 0.527 ± 0.014
298.15 K, 101.33 kPa, x1 = 0.7114 | 0.543 ± 0.014
298.15 K, 101.33 kPa, x1 = 0.8834 | 0.557 ± 0.014
298.16 K, 101 kPa, x1 = 0.1483 | 0.356 ± 0.01
298.16 K, 101 kPa, x1 = 0.2721 | 0.4 ± 0.011
298.16 K, 101 kPa, x1 = 0.3885 | 0.445 ± 0.012
298.16 K, 101 kPa, x1 = 0.4985 | 0.485 ± 0.013
298.16 K, 101 kPa, x1 = 0.6363 | 0.527 ± 0.014
298.16 K, 101 kPa, x1 = 0.7114 | 0.543 ± 0.014
298.16 K, 101 kPa, x1 = 0.8834 | 0.557 ± 0.015
302.95 K, 101 kPa, x1 = 0.25 | 0.3982 ± 0.011
303.15 K, 101 kPa, x2 = 0.112 | 0.512 ± 0.005
303.15 K, 101 kPa, x2 = 0.2 | 0.507 ± 0.005
303.15 K, 101 kPa, x2 = 0.3098 | 0.488 ± 0.005
303.15 K, 101 kPa, x2 = 0.415 | 0.468 ± 0.005
303.15 K, 101 kPa, x2 = 0.502 | 0.447 ± 0.005
303.15 K, 101 kPa, x2 = 0.6075 | 0.412 ± 0.004
303.15 K, 101 kPa, x2 = 0.715 | 0.383 ± 0.004
303.15 K, 101 kPa, x2 = 0.81 | 0.35 ± 0.004
303.15 K, 101 kPa, x2 = 0.9075 | 0.322 ± 0.004
303.15 K, 101.33 kPa, x1 = 0.1041 | 0.326 ± 0.009
303.15 K, 101.33 kPa, x1 = 0.1842 | 0.352 ± 0.009
303.15 K, 101.33 kPa, x1 = 0.2689 | 0.381 ± 0.01
303.15 K, 101.33 kPa, x1 = 0.3733 | 0.424 ± 0.011
303.15 K, 101.33 kPa, x1 = 0.5487 | 0.488 ± 0.013
303.15 K, 101.33 kPa, x1 = 0.6876 | 0.514 ± 0.013
303.15 K, 101.33 kPa, x1 = 0.8278 | 0.54 ± 0.014
303.16 K, 101 kPa, x1 = 0.1041 | 0.326 ± 0.009
303.16 K, 101 kPa, x1 = 0.1842 | 0.352 ± 0.009
303.16 K, 101 kPa, x1 = 0.2689 | 0.381 ± 0.01
303.16 K, 101 kPa, x1 = 0.3733 | 0.424 ± 0.011
303.16 K, 101 kPa, x1 = 0.5487 | 0.488 ± 0.013
303.16 K, 101 kPa, x1 = 0.6876 | 0.514 ± 0.014
303.16 K, 101 kPa, x1 = 0.8278 | 0.54 ± 0.014
303.55 K, 101 kPa, x1 = 0.75 | 0.5427 ± 0.014
303.65 K, 101 kPa, x1 = 0.5 | 0.4779 ± 0.013
308.15 K, 101 kPa, x2 = 0.112 | 0.487 ± 0.005
308.15 K, 101 kPa, x2 = 0.2 | 0.482 ± 0.005
308.15 K, 101 kPa, x2 = 0.3098 | 0.467 ± 0.005
308.15 K, 101 kPa, x2 = 0.415 | 0.446 ± 0.005
308.15 K, 101 kPa, x2 = 0.502 | 0.426 ± 0.005
308.15 K, 101 kPa, x2 = 0.6075 | 0.398 ± 0.004
308.15 K, 101 kPa, x2 = 0.715 | 0.365 ± 0.004
308.15 K, 101 kPa, x2 = 0.81 | 0.336 ± 0.004
308.15 K, 101 kPa, x2 = 0.9075 | 0.312 ± 0.004
311.65 K, 101 kPa, x1 = 0.75 | 0.5052 ± 0.013
313.15 K, 101 kPa, x1 = 0.157 | 0.3324 ± 0.009
313.15 K, 101 kPa, x1 = 0.25 | 0.366 ± 0.0098
313.15 K, 101 kPa, x1 = 0.362 | 0.394 ± 0.011
313.15 K, 101 kPa, x1 = 0.483 | 0.4257 ± 0.011
313.15 K, 101 kPa, x1 = 0.609 | 0.4577 ± 0.012
313.15 K, 101 kPa, x1 = 0.824 | 0.4867 ± 0.013
313.85 K, 101 kPa, x1 = 0.5 | 0.4341 ± 0.012
321.65 K, 101 kPa, x1 = 0.75 | 0.4644 ± 0.012
